Data reported in patent publication US11458123B2 (Arvinas, Inc., priority 2016, dated 2022).

Tested on: tau protein
Assay: Tau protein in vitro degradation assay (Western blot, Tau-13 antibody)
Assay type: cell-based, human
Settings: SK-N-SH cells; 72 hours of incubation; tested at 300 nM, 100 nM, 33 nM and 11 nM; Western blot, Tau-13 antibody
Method: Tau Protein In Vitro Degradation Assay
To determine effect of PROTACs on tau protein degradation SK-N-SH cells were seeded in a 24-well tissue culture-treated plate for at least 18-hours prior to compound addition. Tau PROTACs were evaluated for tau degradation by lysing the cells in lysis buffer with protease inhibitors following a 72-hour incubation with tau PROTACs at 1000 nM, 300 nM and 100 nM for Table 1 and 300 nM, 100 nM, 33 nM and 11 nM for Table 2. Cell lysates were run on standard SDS-PAGE gels, and tau levels were detected by Western blotting using Tau-13 antibody from Abcam (Cambridge, UK) that binds to all forms of human tau.

SMILES	Degradation activity* (highest amount of degradation observed at any dosage; tau protein remaining)	Degradation activity (tau protein remaining; highest amount of degradation observed at any dosage)
O=C1CCC(N2C(=O)c3ccc(OCCCCCN4CCN(CCO[C@H]5C[C@@H](Oc6ccc(-c7ccc8c(c7)[nH]c7ccncc78)cn6)C5)CC4)cc3C2=O)C(=O)N1 (stereo partly shown) [Compound 56, 5-((5-(4-(2-((1 s,3 s)-3-((5-(5H-pyrido[4,3-b]indol-7-yl)pyridin-2-yl)oxy)cyclobutoxy)ethyl)piperazin-1-yl)pentyl)oxy)-2-(2,6-dioxopiperidin-3-yl)isoindoline-1,3-dione]	C (>80% tau protein remaining after 72 hours of incubation with the test compound)	
CN(CCCO[C@H]1C[C@H](Oc2ccc(-c3ccc4c5cnccc5n(C)c4c3)cn2)C1)C(=O)COCC1CN(c2ccc3c(c2)C(=O)N(C2CCC(=O)NC2=O)C3=O)C1 (stereo partly shown) [Compound 202, 2-((1-(2-(2,6-dioxopiperidin-3-yl)-1,3-dioxoisoindolin-5-yl)azetidin-3-yl)methoxy)-N-methyl-N-(3-((1r,3r)-3-((5-(5-methyl-5H-pyrido[4,3-b]indol-7-yl)pyridin-2-yl)oxy)cyclobutoxy)propyl)acetamide]		B (≤80% and >50% tau protein remaining after 72 hours of incubation with the test compound)
Cn1c2ccncc2c2ccc(-c3cnc(O[C@H]4C[C@H](Oc5ccc(C#CCN6CC(Oc7ccc8c(c7)C(=O)N(C7CCC(=O)NC7=O)C8=O)C6)nc5)C4)c(C(F)(F)F)c3)cc21 (stereo partly shown) [Compound 142, 2-(2,6-dioxopiperidin-3-yl)-5-((1-(3-(5-((1r,3r)-3-((5-(5-methyl-5H-pyrido[4,3-b]indol-7-yl)-3-(trifluoromethyl)pyridin-2-yl)oxy)cyclobutoxy)pyridin-2-yl)prop-2-yn-1-yl)azetidin-3-yl)oxy)isoindoline-1,3-dione]	C (>80% tau protein remaining after 72 hours of incubation with the test compound)	
O=C1CCC(N2C(=O)c3ccc(OCCCCCN4CCN(CCOCCCc5ccc(-c6ccc7c(c6)[nH]c6ccncc67)cn5)CC4)cc3C2=O)C(=O)N1 (stereo not shown) [Compound 52, 5-((5-(4-(2-(3-(5-(5H-pyrido[4,3-b]indol-7-yl)pyridin-2-yl)propoxy)ethyl)piperazin-1-yl)pentyl)oxy)-2-(2,6-dioxopiperidin-3-yl)isoindoline-1,3-dione]	C (>80% tau protein remaining after 72 hours of incubation with the test compound)	
O=C1CCC(N2C(=O)c3cc(F)c(OCCOCCOCCOCCOCCOc4ccc(-c5ccc6c(c5)[nH]c5ccncc56)cn4)cc3C2=O)C(=O)N1 (stereo not shown) [Compound 81, 5-((14-((5-(5H-pyrido[4,3-b]indol-7-yl)pyridin-2-yl)oxy)-3,6,9,12-tetraoxatetradecyl)oxy)-2-(2,6-dioxopiperidin-3-yl)-6-fluoroisoindoline-1,3-dione]	A (≤50% tau protein remaining after 72 hours of incubation with the test compound)	
Cn1c2ccncc2c2ccc(-c3ccc(O[C@H]4C[C@H](OCCOCCOCCOCC5CN(c6ccc7c(c6)C(=O)N(C6CCC(=O)NC6=O)C7=O)C5)C4)nc3)cc21 (stereo partly shown) [Compound 206, 2-(2,6-dioxopiperidin-3-yl)-5-(3-((2-(2-(2-((1r,3r)-3-((5-(5-methyl-5H-pyrido[4,3-b]indol-7-yl)pyridin-2-yl)oxy)cyclobutoxy)ethoxy)ethoxy)ethoxy)methyl)azetidin-1-yl)isoindoline-1,3-dione]		B (≤80% and >50% tau protein remaining after 72 hours of incubation with the test compound)
Cn1c2ccncc2c2ccc(-c3ccc(O[C@H]4C[C@H](OCCCCCCOCC5CN(c6ccc7c(c6)C(=O)N(C6CCC(=O)NC6=O)C7=O)C5)C4)nc3)cc21 (stereo partly shown) [Compound 178, 2-(2,6-dioxopiperidin-3-yl)-5-(3-(((6-((1r,3r)-3-((5-(5-methyl-5H-pyrido[4,3-b]indol-7-yl)pyridin-2-yl)oxy)cyclobutoxy)hexyl)oxy)methyl)azetidin-1-yl)isoindoline-1,3-dione]		A (≤50% tau protein remaining after 72 hours of incubation with the test compound)
O=C1CCC(N2C(=O)c3ccc(OCCCCCOC4CCN(C(=O)[C@H]5C[C@@H](Oc6ccc(-c7ccc8c(c7)[nH]c7ccncc78)cn6)C5)CC4)cc3C2=O)C(=O)N1 (stereo partly shown) [Compound 166, 5-((5-((1-((1r,3r)-3-((5-(5H-pyrido[4,3-b]indol-7-yl)pyridin-2-yl)oxy)cyclobutane-1-carbonyl)piperidin-4-yl)oxy)pentyl)oxy)-2-(2,6-dioxopiperidin-3-yl)isoindoline-1,3-dione]	C (>80% tau protein remaining after 72 hours of incubation with the test compound)	
Cc1ncsc1-c1ccc([C@H](C)NC(=O)[C@@H]2C[C@@H](O)CN2C(=O)[C@@H](NC(=O)COCCOCCOCCOCCOCCOCCOc2ccc(-c3ccc4c(c3)[nH]c3ccncc34)cn2)C(C)(C)C)cc1 [Compound 122, (2S,4R)-1-((S)-23-((5-(5H-pyrido[4,3-b]indol-7-yl)pyridin-2-yl)oxy)-2-(tert-butyl)-4-oxo-6,9,12,15,18,21-hexaoxa-3-azatricosanoyl)-4-hydroxy-N—((S)-1-(4-(4-methylthiazol-5-yl)phenyl)ethyl)pyrrolidine-2-carboxamide]	C (>80% tau protein remaining after 72 hours of incubation with the test compound)	
Cn1c2ccncc2c2ccc(-c3ccc(OCCCOc4ccc(C#CCOC5CN(c6ccc7c(c6)C(=O)N(C6CCC(=O)NC6=O)C7=O)C5)nc4)nc3)cc21 (stereo not shown) [Compound 167, 2-(2,6-dioxopiperidin-3-yl)-5-(3-((3-(5-(3-((5-(5-methyl-5H-pyrido[4,3-b]indol-7-yl)pyridin-2-yl)oxy)propoxy)pyridin-2-yl)prop-2-yn-1-yl)oxy)azetidin-1-yl)isoindoline-1,3-dione]	C (>80% tau protein remaining after 72 hours of incubation with the test compound)	
Cn1c2ccncc2c2ccc(-c3ccc(OCCOCCOCCOCCOCCOCCOCCOc4ccc5c(c4)C(=O)N(C4CCC(=O)NC4=O)C5=O)nc3)cc21 (stereo not shown) [Compound 132, 2-(2,6-dioxopiperidin-3-yl)-5-((20-((5-(5-methyl-5H-pyrido[4,3-b]indol-7-yl)pyridin-2-yl)oxy)-3,6,9,12,15,18-hexaoxaicosyl)oxy)isoindoline-1,3-dione]	A (≤50% tau protein remaining after 72 hours of incubation with the test compound)	
O=C1CCC(N2C(=O)c3ccc(OCCCCCOC4CCN(C(=O)[C@H]5C[C@H](Oc6ccc(-c7ccc8c(c7)[nH]c7ccncc78)cn6)C5)CC4)cc3C2=O)C(=O)N1 (stereo partly shown) [Compound 165, 5-((5-((1-((1r,3r)-3-((5-(5H-pyrido[4,3-b]indol-7-yl)pyridin-2-yl)oxy)cyclobutane-1-carbonyl)piperidin-4-yl)oxy)pentyl)oxy)-2-(2,6-dioxopiperidin-3-yl)isoindoline-1,3-dione]	C (>80% tau protein remaining after 72 hours of incubation with the test compound)	
Cc1cc(-c2ccc3c4cnccc4n(C)c3c2)cnc1OCCOCCOCCOCCOCCOc1ccc2c(c1)C(=O)N(C1CCC(=O)NC1=O)C2=O (stereo not shown) [Compound 140, 2-(2,6-dioxopiperidin-3-yl)-5-((14-((3-methyl-5-(5-methyl-5H-pyrido[4,3-b]indol-7-yl)pyridin-2-yl)oxy)-3,6,9,12-tetraoxatetradecyl)oxy)isoindoline-1,3-dione]	A (≤50% tau protein remaining after 72 hours of incubation with the test compound)	
Cn1c2ccncc2c2ccc(-c3ccc(OC4CC5(C4)CN(CCOCCCOC4CN(c6ccc7c(c6)C(=O)N(C6CCC(=O)NC6=O)C7=O)C4)C5)nc3)cc21 (stereo not shown) [Compound 211, 2-(2,6-dioxopiperidin-3-yl)-5-(3-(3-(2-(6-((5-(5-methyl-5H-pyrido[4,3-b]indol-7-yl)pyridin-2-yl)oxy)-2-azaspiro[3.3]heptan-2-yl)ethoxy)propoxy)azetidin-1-yl)isoindoline-1,3-dione]		C (>80% tau protein remaining after 72 hours of incubation with the test compound)
Cn1c2ccncc2c2ccc(-c3ccc(O[C@H]4C[C@H](Oc5ccc(C#CCCCCOc6ccc7c(c6)C(=O)N(C6CCC(=O)NC6=O)C7=O)nn5)C4)nc3)cc21 (stereo partly shown) [Compound 134, 2-(2,6-dioxopiperidin-3-yl)-5-((6-(6-((1r,3r)-3-((5-(5-methyl-5H-pyrido[4,3-b]indol-7-yl)pyridin-2-yl)oxy)cyclobutoxy)pyridazin-3-yl)hex-5-yn-1-yl)oxy)isoindoline-1,3-dione]	B (≤80% and >50% tau protein remaining after 72 hours of incubation with the test compound)	
Cn1c2ccncc2c2ccc(-c3ccc(O[C@H]4C[C@H](Oc5ccc(C#CCCCCOc6ccc7c(c6)C(=O)N(C6CCC(=O)NC6=O)C7=O)cc5)C4)nc3)cc21 (stereo partly shown) [Compound 124, 2-(2,6-dioxopiperidin-3-yl)-5-((6-(4-((1r,3r)-3-((5-(5-methyl-5H-pyrido[4,3-b]indol-7-yl)pyridin-2-yl)oxy)cyclobutoxy)phenyl)hex-5-yn-1-yl)oxy)isoindoline-1,3-dione]	C (>80% tau protein remaining after 72 hours of incubation with the test compound)	
